One assay has as its target T1, Dihydrofolate reductase (Homo sapiens, UniProt P00374).
T1 sequence (P00374 whole entry): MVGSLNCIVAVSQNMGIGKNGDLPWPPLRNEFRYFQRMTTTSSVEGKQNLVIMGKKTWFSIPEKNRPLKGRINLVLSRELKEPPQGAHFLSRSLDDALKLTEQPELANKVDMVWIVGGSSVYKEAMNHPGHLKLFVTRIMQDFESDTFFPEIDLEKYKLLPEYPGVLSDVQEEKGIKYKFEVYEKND
As to the kind of experiment: Inhibition of recombinant human DHFR using DHF as substrate measured every 5 sec over 6 mins in presence of NADPH by UV-Visible spectrophotometric method relative to control.

Assay [1] can be described thus: Antiproliferative activity against human HL60 cells after 72 hrs by MTT assay. The format is functional, cell-based. Particulars: HL-60, 72 h. For orientation: Tetrazolium assays rely on reduction of a dye to a coloured formazan, in cell work by metabolically active cells.
Assay [2] is described as follows: cells. The following applies: Homo sapiens, HCT-116, 72 h.
Description: Antiproliferative activity against human HCT116 cells after 72 hrs by MTT assay
Assay [3] is described as follows: Antiproliferative activity against human MDA-MB-231 cells after 72 hrs by MTT assay. Particulars: MDA-MB-231, 72 h. The format is functional, cell-based.
Assay [4] can be described thus: cells. The following applies: Homo sapiens, A549, 72 h.
Description: Antiproliferative activity against human A549 cells after 72 hrs by MTT assay
Assay [5] is described as follows: Antiproliferative activity against human HepG2 cells after 72 hrs by MTT assay. The format is functional, cell-based. The following applies: HepG2, 72 h.

As for `NC1=NC2(CCCCC2)N(OCCCOc2ccc(Cl)cc2)C(N)=N1`, the IC50 (as a rule, the concentration that gives 50% inhibition) at Dihydrofolate reductase is 49 nM; in assay [1] it was 580 nM; in the assay “cells [2]” it was 380 nM; in assay [3] (read-out: IC50) it was 1210 nM; in “cells [4]”, 990 nM; in assay [5] it was 2330 nM.
For `NC1=NC2(CCSCC2)N(OCCCOc2ccc(Cl)c(Cl)c2)C(N)=N1`, the IC50 in assay [1] turned out to be 140 nM; in “cells [2]”, 1 nM; in assay [3] (read-out: IC50), 10 nM; in “cells [4]”, 1 nM; in assay [5] it was 70 nM.
`NC1=NC2(CCOCC2)N(OCCCOc2ccc(Br)cc2)C(N)=N1`: the half-inhibitory concentration (IC50) on Dihydrofolate reductase was determined as 32.5 nM; in assay [1], 310 nM; in “cells [2]”, 320 nM; in the assay “cells [4]” it was 280 nM.
For `NC1=NC2(CCOCC2)N(OCCCOc2cc(Cl)c(Cl)cc2Cl)C(N)=N1`, in that order: 36 nM, 2360 nM, 2750 nM and 680 nM.
In the case of `NC1=NC2(CCSCC2)N(OCCCOc2ccccc2Br)C(N)=N1`, the IC50 in assay [1] is 180 nM; in “cells [2]”, 1 nM; in assay [3] (read-out: IC50), 10 nM; in “cells [4]” it was 40 nM; in assay [5] it was 90 nM.
As for `NC1=NC2(CCOCC2)N(OCCCOc2ccc(Cl)cc2)C(N)=N1`, the IC50 on Dihydrofolate reductase came out at 33.6 nM; in assay [1], 330 nM; in “cells [2]”, 690 nM; in “cells [4]”, 360 nM.
As for `NC1=NC2(CCSCC2)N(OCCCOc2ccccc2Cl)C(N)=N1`, the IC50 in assay [1] came out at 390 nM; in the assay “cells [2]”, 1 nM; in assay [3] (read-out: IC50), 80 nM; in “cells [4]” it was 80 nM; in assay [5], 80 nM.
In the case of `COc1ccc(OCCCON2C(N)=NC(N)=NC23CCOCC3)cc1`, the IC50 is 11.1 nM on Dihydrofolate reductase, 1670 nM in assay [1], 1500 nM in “cells [2]” and 660 nM in the assay “cells [4]”.
`COc1ccc(OCCCON2C(N)=NC(N)=NC23CCSCC3)cc1`: the IC50 in assay [1] came out at 500 nM; in the assay “cells [2]”, 70 nM; in assay [3] (read-out: IC50), 350 nM; in the assay “cells [4]” it was 240 nM; in assay [5], 880 nM.
In the case of `NC1=NC2(CCSCC2)N(OCCCOc2cc(Cl)c(Cl)cc2Cl)C(N)=N1`, the IC50 in assay [1] is 730 nM; in the assay “cells [2]”, 1 nM; in assay [3] (read-out: IC50) it was 110 nM; in “cells [4]”, > 100000 nM; in assay [5], > 100000 nM.
As for `NC1=NC2(CCOCC2)N(OCCCOc2cccc(Cl)c2Cl)C(N)=N1`, the concentration for half-maximal inhibition (IC50) in assay [1] turned out to be 440 nM; in “cells [2]” it was 5 nM; in assay [3] (read-out: IC50), 140 nM; in the assay “cells [4]”, 100 nM; in assay [5] it was 330 nM.
For `NC1=NC2(CCSCC2)N(OCCCOc2cccc(Cl)c2Cl)C(N)=N1`, in that order: 30 nM, 1 nM, 1 nM, 1 nM and 50 nM.
As to `NC1=NC2(CCOCC2)N(OCCCOc2ccccc2)C(N)=N1`, the IC50 at Dihydrofolate reductase is 86.1 nM; in assay [1], 2460 nM; in the assay “cells [2]” it was 6010 nM; in the assay “cells [4]” it was 1080 nM.
For the molecule `Cc1cc(C)cc(OCCCON2C(N)=NC(N)=NC23CCOCC3)c1`, the IC50 is 720 nM in assay [1]; 190 nM in “cells [2]”; 3570 nM in assay [3] (read-out: IC50); 710 nM in the assay “cells [4]”; 680 nM in assay [5].
For `NC1=NC2(CCOCC2)N(OCCCOc2cccc(Br)c2)C(N)=N1`, in that order: 560 nM, 40 nM, 400 nM, 160 nM and 320 nM.
With `NC1=NC2(CCOCC2)N(OCCCOc2cccc(Cl)c2)C(N)=N1`, the IC50 in assay [1] worked out at 520 nM; in “cells [2]”, 120 nM; in assay [3] (read-out: IC50), 1020 nM; in the assay “cells [4]”, 150 nM; in assay [5], 150 nM.
As for `NC1=NC2(CCSCC2)N(OCCCOc2ccc(Cl)cc2Cl)C(N)=N1`, the IC50 at Dihydrofolate reductase worked out at 4.08 nM; in assay [1], 330 nM; in the assay “cells [2]”, 1 nM; in assay [3] (read-out: IC50) it was 60 nM; in “cells [4]”, 210 nM; in assay [5] it was 1380 nM.
As for `NC1=NC2(CCSCC2)N(OCCCOc2ccc(Cl)cc2)C(N)=N1`, the IC50 at Dihydrofolate reductase is 18.3 nM; in assay [1] it was 430 nM; in “cells [2]”, 10 nM; in assay [3] (read-out: IC50), 350 nM; in the assay “cells [4]”, 580 nM; in assay [5] it was 1100 nM.
`NC1=NC2(CCSCC2)N(OCCCOc2ccc(Br)cc2)C(N)=N1`: the IC50 at Dihydrofolate reductase came out at 6.46 nM; in assay [1], 350 nM; in the assay “cells [2]” it was 20 nM; in assay [3] (read-out: IC50), 440 nM; in “cells [4]” it was 740 nM; in assay [5], 1400 nM.
As to `NC1=NC2(CCOCC2)N(OCCCOc2ccc(F)cc2)C(N)=N1`, the IC50 was 46.6 nM on Dihydrofolate reductase, 2380 nM in assay [1], 3280 nM in “cells [2]” and 1060 nM in “cells [4]”.
As to `NC1=NC2(CCOCC2)N(OCCCOc2ccccc2Br)C(N)=N1`, the IC50 in assay [1] came to 610 nM; in “cells [2]”, 30 nM; in assay [3] (read-out: IC50) it was 910 nM; in the assay “cells [4]”, 160 nM; in assay [5], 860 nM.
As for `NC1=NC2(CCOCC2)N(OCCCOc2ccc(Cl)c(Cl)c2)C(N)=N1`, the IC50 on Dihydrofolate reductase turned out to be 8.23 nM; in assay [1], 1240 nM; in “cells [2]”, 90 nM; in assay [3] (read-out: IC50) it was 590 nM; in the assay “cells [4]”, 790 nM; in assay [5] it was 380 nM.
In the case of `Cc1ccc(OCCCON2C(N)=NC(N)=NC23CCOCC3)cc1`, the IC50 on Dihydrofolate reductase was 56.7 nM; in assay [1] it was 2580 nM; in the assay “cells [2]”, 2390 nM; in “cells [4]” it was 1060 nM.
With `NC1=NC2(CCOCC2)N(OCCCOc2ccccc2Cl)C(N)=N1`, the IC50 in assay [1] came out at 660 nM; in “cells [2]”, 70 nM; in assay [3] (read-out: IC50), 1430 nM; in the assay “cells [4]”, 2700 nM; in assay [5], 1750 nM.
`NC1=NC2(CCSCC2)N(OCCCOc2cccc(Cl)c2)C(N)=N1`: the IC50 in assay [1] was 260 nM; in “cells [2]”, 1 nM; in assay [3] (read-out: IC50), 130 nM; in “cells [4]”, 60 nM; in assay [5] it was 90 nM.
`CC(C)(C)c1ccc(OCCCON2C(N)=NC(N)=NC23CCOCC3)cc1`: the IC50 on Dihydrofolate reductase was 3.72 nM; in assay [1], 870 nM; in the assay “cells [2]”, 1610 nM; in the assay “cells [4]” it was 500 nM.
On to `NC1=NC2(CCSCC2)N(OCCCOc2cccc(Br)c2)C(N)=N1`, for which the IC50 stood at 200 nM in assay [1]; 1 nM in “cells [2]”; 60 nM in assay [3] (read-out: IC50); 50 nM in “cells [4]”; 90 nM in assay [5].
For `CC(C)(C)c1ccc(OCCCON2C(N)=NC(N)=NC23CCSCC3)cc1`, in that order: 280 nM, 1 nM, 1 nM, 1 nM and 70 nM.
On to `COc1cccc2c1C(=O)c1c(O)c3c(c(O)c1C2=O)C[C@@](O)(C(=O)CO)C[C@@H]3O[C@H]1C[C@H](N)[C@H](O)[C@H](C)O1` [DOXORUBICIN], for which the IC50 in “cells [2]” turned out to be 310 nM; in assay [3], 720 nM; in “cells [4]”, 120 nM.

The record behind these values is ChEMBL document CHEMBL3877300, “Design, synthesis, docking studies and biological evaluation of novel dihydro-1,3,5-triazines as human DHFR inhibitors” (Eur J Med Chem, 2017).
